Experimental data: patent US11795460B2, “Compositions and methods for TTR gene editing and treating ATTR amyloidosis” (Intellia Therapeutics, Inc., priority 2017, dated 2023)

Assays:
[1] = tested on: TTR; test: TTR editing in HepG2 cells transfected with Spy Cas9 mRNA and dgRNAs (Table 6); format: cell-based, human; conditions: HepG2 cells co-transfected with Spy Cas9 mRNA (SEQ ID NO:2) and dgRNAs
Summary of the method: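 Percent editing is the share of sequencing reads at the TTR target locus that carry insertions, deletions or substitutions, measured by Illumina amplicon sequencing aligned to hg38. Samples came from HepG2 cells lipofected first with 100 ng Cas9 mRNA and then with dual-guide RNA (25 nM crRNA/tracer), collected 24–72 h later.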

[2] = tested on: TTR; test: TTR editing in primary human hepatocytes transfected with Spy Cas9 mRNA and dgRNAs (Table 9); format: cell-based; conditions: dgRNA co-transfected with Spy Cas9 mRNA (SEQ ID NO:2)
Summary of the method: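 PHH sequentially lipofected with Spy Cas9 mRNA (100 ng), then crRNA plus tracrRNA (25 nM each) dual-guide lipoplex. Cells harvested 24, 48 or 72 h post-transfection; TTR target amplicons sequenced on Illumina MiSeq, editing given as percent reads with indels or substitutions over total reads.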

[3] = tested on: TTR; test: TTR editing in HEK293_Cas9 cells transfected with dgRNAs (Table 4); format: cell-based, human; conditions: HEK293_Cas9 cells (constitutively express Spy Cas9) transfected with dgRNAs
Summary of the method: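 Percent editing, taken from amplicon NGS as the fraction of all reads carrying insertions, deletions or substitutions, was measured 24, 48 or 72 h after delivery. Delivery used RNAiMAX lipoplexes of 25 nM each crRNA and trRNA into HEK293 cells stably expressing Spy Cas9.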

[4] = tested on: TTR; test: TTR editing in HUH7 cells transfected with Spy Cas9 mRNA and dgRNAs (Table 5); format: cell-based, human; conditions: HUH7 cells co-transfected with Spy Cas9 mRNA (SEQ ID NO:2) and dgRNAs
Summary of the method: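 Percent editing is the share of NGS reads at the TTR target carrying insertions, deletions or substitutions, from amplicon sequencing of genomic DNA harvested at 24, 48 or 72 h. HUH7 cells first received Cas9 mRNA (100 ng) by lipofection, then dual-guide RNA (crRNA and tracer, 25 nM each).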

Row | Sequence | Avg % Deletion [1] | Avg % Edit [1] | Avg % Insert [1] | Avg % Deletion [2] | Avg % Edit [2] | Avg % Insert [2] | Avg % Deletion [3] | Avg % Edit [3] | Avg % Insert [3] | Avg % Deletion [4] | Avg % Edit [4] | Avg % Insert [4]
1 | UUCUUUGGCAACUUACCCAG (tested as dual guide RNA, chemistry not given here) [CR003357] | 3.46% | 45.83% | 42.37% | 0.63% | 25.93% | 25.30% | 37.85% | 43.23% | 5.38% | 30.82% | 36.31% | 6.37%
2 | UUUGACCAUCAGAGGACACU (tested as dual guide RNA, chemistry not given here) [CR003344] | 3.62% | 33.43% | 29.81% | 9.20% | 31.50% | 22.40% | 29.54% | 33.87% | 4.32% | 54.40% | 64.02% | 10.76%
